Experimental data published in US20110312897A1, “CATHEPSIN L PROTEOLYTICALLY PROCESSES HISTONE H3 DURING MOUSE EMBRYONIC STEM CELL DIFFERENTIATION” (THE ROCKEFELLER UNIVERSITY, priority 2008, published 2011).
Where a SMILES comes first, the peptide text is derived from it. Where no end group is shown, it is not given here. The star is where a group is joined. Cbz = O=C(OCc1ccccc1)*; CH2F = FC*

Key:
[1] = target: T1, H3 protease activity in fraction #23 (Mus musculus, UniProt P06797); assay: In vitro H3 cleavage assay of hydroxyapatite fraction #23 +/- protease inhibitors; type: biochemical
T1 construct: a double chain mature form at ˜25 kD and ˜5 kD; endogenous in cells; host or cells: chromatin of 3 days +RA differentiating mouse ESCs (LF2), hydroxyapatite fraction #23
Method: (§1) Extracts were incubated in buffer (10 mM HEPES, 10 mM KCl, 1.5 mM MgCl2, 0.34M sucrose, 10% glycerol, 5 mM β-mercaptoethanol, all final) with 0.1 μg/μl rH3-HIS (purified from E. coli) and incubated at 37° C. for 1-3 hours. Reactions were stopped by addition of 5×SDS sample buffer and boiling; results were analyzed by immunoblotting with HIS-HRP and/or H3.cs1 antibody. For MS analysis, reactions were quenched by addition of 0.1% (final) TFA. rCathepsin L (R&D Systems, # 1515-CY-010), rCathepsin B (R&D Systems Cat No. BAF965), and rCathepsin K (Calbiochem Cat. No. 342001) were purchased from commercial sources and tested in the assay with rH3-HIS.
Three days+RA differentiating ESC chromatin pellets were solubilized by sonication in buffer A (80 mM NaPO^−4, 200 mM NaCl), injected onto a 2 or 5 mL hydroxyapatite column (BioRad), and fractionated with a 200 mM to 2M NaCl gradient. Each fraction was then assayed as described above. […] Digest was then acidified with glacial acetic acid and aliquots of samples were analyzed using an LTQ-FT as described above. Data was searched against a mouse database using SEQUEST (Eng et al., Journal of the American Society of Mass Spectrometry 5:976-989 (1994), which is hereby incorporated by reference in its entirety). All spectra of interest were manually validated.
To validate further the identification of Cathepsin L as a histone H3 protease, the enriched fractions were tested with different classes of protease inhibitors in the H3 cleavage assay.

[2] = target: T2, Cathepsin B (Mus musculus, UniProt P10605); assay: Chemical inhibition in RA-differentiating ESCs, Cathepsin B immunoblot; type: cell-based; conditions: 10 uM in cell media, RA differentiation, vs control cells
T2 construct: endogenous in cells; host or cells: mouse ES cells (LF2 line), RA-differentiated
Method: ES cells (LF2 line) were cultured as previously described (Bernstein et al., “Mouse Polycomb Proteins Bind Differentially to Methylated Histone H3 and RNA and are Enriched in Facultative Heterochromatin,” Mol Cell Biol 26:2560-2569 (2006), which is hereby incorporated by reference in its entirety). Cells were grown on gelatin-coated plates without feeder cells and maintained in an undifferentiated state through culture in KODMEM (Invitrogen 1082-9018)), 2 mM L-glutamine (Sigma G7513), 15% ES grade fetal bovine serum (Gibco 10439-024), 10^−4 mM 2-mercaptoethanol, and leukemia inhibitory factor (LIF). To differentiate, cells were plated sparsely at ˜1*10^4 cells/cm^2, allowed to adhere overnight and then fed with differentiation media containing DMEM, 10% FBS, 10^−4 mM 2-mercaptoethanol and, for retinoic acid (RA) differentiation, 100 nM all-trans-RA (Sigma R2625). […]
(§2) To further assess whether Cathepsin L causes histone H3 cleavage in vivo, a commercially available, cell-permeable Cathepsin L specific inhibitor, Cathepsin L Inhibitor I, was used Inhibition of Cathepsin L using a chemical inhibitor allowed the effect of Cathepsin L inhibition to be assessed within a single, wild-type cell line rather than comparing individual cell lines created by drug selection. […]

[3] = target: T3, Cathepsin L (Mus musculus, UniProt P06797); assay: Chemical inhibition of Cathepsin L in RA-differentiating ESCs (immunoblot); type: cell-based; conditions: 10 uM in cell media, RA differentiation
T3 construct: endogenous in cells; host or cells: mouse ES cells (LF2 line), RA-differentiated
Method: (§3) ES cells (LF2 line) were cultured as previously described (Bernstein et al., “Mouse Polycomb Proteins Bind Differentially to Methylated Histone H3 and RNA and are Enriched in Facultative Heterochromatin,” Mol Cell Biol 26:2560-2569 (2006), which is hereby incorporated by reference in its entirety). Cells were grown on gelatin-coated plates without feeder cells and maintained in an undifferentiated state through culture in KODMEM (Invitrogen 1082-9018)), 2 mM L-glutamine (Sigma G7513), 15% ES grade fetal bovine serum (Gibco 10439-024), 10^−4 mM 2-mercaptoethanol, and leukemia inhibitory factor (LIF). To differentiate, cells were plated sparsely at ˜1*10^4 cells/cm^2, allowed to adhere overnight and then fed with differentiation media containing DMEM, 10% FBS, 10^−4 mM 2-mercaptoethanol and, for retinoic acid (RA) differentiation, 100 nM all-trans-RA (Sigma R2625). Embryoid body formation was accomplished by splitting partially trypsinized cells onto non-treated petri dishes and allowing cells to cluster. Chemical inhibition of Cathepsin L was accomplished by adding 10 uM [final] Cathepsin L I inhibitor (Calbiochem, Cat. No. 219402) to the cell media.
Whole cell extracts were prepared by resuspending fresh or flash frozen cell pellets in SDS-Laemmli sample buffer and boiling immediately. […]
as §2

[4] = tested on: differentiating ESCs; assay: Pluripotency and lineage marker expression in differentiating ESCs (immunoblot, Q-PCR); type: cell-based, mouse; conditions: for Nanog expression: inhibitor vs control cells
Description: FIGS. 15A-15C show the effect of in vivo chemical inhibition of Cathepsin L on the transcriptional profile of differentiating ESCs. Cells were differentiated with RA in the presence of either Cathepsin L I inhibitor or DMSO alone, as in FIG. 6B. mRNA was isolated from those cells at the time points indicated, reverse transcribed into cDNA, and assayed for the expression of specific genes by Q-PCR with SYBR green. The data shown in FIGS. 15A-15C represent the average of two independent experiments.
as §3
RNA was isolated from undifferentiated and +RA differentiating ESCs using Trizol reagent as directed by the manufacturer (Invitrogen Cat. No. 15596-018). RNA was transcribed into cDNA using the First Strand Superscript kit (Invitrogen Cat. No. 18080-051) and analyzed by quantitative PCR using SYBRgreen reagent (Applied Biosystems Cat. No. 4309155).
Importantly, neither Oct-3/4 nor Cathepsin B levels (FIG. 6C, panels d and e) appeared to change upon addition of the inhibitor.

[5] = target: H3 cleavage activity (Mus musculus, UniProt P06797); assay: H3 cleavage activity with addition of chelators; type: biochemical; conditions: moderately high concentrations
Method: as §1, with “Reactions were stopped by addition of 5×SDS sample buffer and boiling; results were analyzed by immunoblotting with HIS-HRP and/or H3.cs1 antibody.” left out, “rH[…].” for “rH3-HIS.”

[6] = target: T4, rCathepsin L (Mus musculus, UniProt P06797); assay: ELISA based H3cs.1 cleavage assay of H3 15-31 peptides; type: biochemical; conditions: pH 7.5 and pH 5.5; compared to unmodified H3 15-31 peptide
T4 construct: purchased R&D Systems 1515-CY-010
Method: FIG. 7A is an immunoblot showing cleavage of the modified recombinant histone 3 substrates following incubation with rCathepsin L. The four rH3 substrates used in the cleavage assay include: 1=rH3 unmodified, 2=rH3 alkylated to K27me2, 3=rH3 pan-acetylated with acetic anhydride, 4=rH3+K27me2 pan-acetylated with acetic anhydride. FIG. 7B is a graph showing the amount of recombinant H3 cleavage product formed following incubation with Cathepsin L. H3 cleavage reactions were performed as in FIG. 7A using synthesized H3 peptides representing amino acids 15 to 31. Reactions were incubated with ˜250 pmol peptide and quenched with 0.1% TFA before being plated in duplicate for ELISA with the H3cs.1 antibody. Signal was normalized to that of mock reactions for each peptide. Results represent three independent experiments. […] Binding decreases 3-fold with cleaved peptide. p<0.01. Kds are in μM±SEM. Data points represent the mean±SD
In order to test the effect of these modifications more quantitatively and specifically, a set of five peptides with identical backbone sequences flanking the H3 cleavage site (H3 15-31) were synthesized and then modified as follows: unmodified, K18 acetyl, K23 acetyl, K18ac+K23ac, and K27me2. An ELISA based assay using the H3cs.1 antibody described previously (characterized in FIG. 11) was used to quantitatively measure the H3cs.1 cleavage activity of rCathepsin L on these peptides.

[7] = Q-PCR, after 3 days of differentiation, vs control cells

T3 sequence (P06797 114-334): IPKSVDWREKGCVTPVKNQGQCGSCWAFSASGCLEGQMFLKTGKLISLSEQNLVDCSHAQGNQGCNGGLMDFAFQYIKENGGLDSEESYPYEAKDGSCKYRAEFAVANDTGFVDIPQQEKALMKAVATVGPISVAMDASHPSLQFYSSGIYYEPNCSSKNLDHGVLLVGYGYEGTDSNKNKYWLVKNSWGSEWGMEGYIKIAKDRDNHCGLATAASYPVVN
T4 sequence (P06797 114-334): as above
T1 sequence (P06797 114-288 limits assumed): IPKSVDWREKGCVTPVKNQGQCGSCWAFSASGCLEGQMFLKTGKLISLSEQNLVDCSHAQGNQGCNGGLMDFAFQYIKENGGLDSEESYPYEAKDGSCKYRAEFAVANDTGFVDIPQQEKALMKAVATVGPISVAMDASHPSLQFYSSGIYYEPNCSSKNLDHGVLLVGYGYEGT
T1 sequence (P06797 291-334 limits assumed): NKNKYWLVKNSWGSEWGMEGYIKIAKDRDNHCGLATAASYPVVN
Chain of H3 cleavage activity (P06797 114-334): as the sequence (P06797 114-334) above
T2 sequence (P10605 80-333): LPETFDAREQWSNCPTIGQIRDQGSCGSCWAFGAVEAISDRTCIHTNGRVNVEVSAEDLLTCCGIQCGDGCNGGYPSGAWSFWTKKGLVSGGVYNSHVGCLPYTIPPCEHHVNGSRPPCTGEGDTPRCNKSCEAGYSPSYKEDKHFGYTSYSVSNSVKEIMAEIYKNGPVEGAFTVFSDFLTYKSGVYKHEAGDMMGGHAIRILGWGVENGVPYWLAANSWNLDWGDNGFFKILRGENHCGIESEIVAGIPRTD

For `NCCc1ccc(S(=O)(=O)F)cc1` [AEBSF], the H3 cleavage activity ([1]; AEBSF 2 mM and 10 mM) was “not at the lower concentrations tested” and the H3 cleavage activity ([1]; AEBSF 20 mM) was “modest reduction in cleavage activity”.
With `O=C(NC(Cc1ccccc1)C(=O)NC(Cc1ccccc1)C(=O)CF)OCc1ccccc1` (stereo not drawn) [Cathepsin L Inhibitor I] (Cbz-Phe-Phe-CH2F; configuration not given here) the “Cathepsin B levels” value [2] was “consistency of Cathepsin B levels”, the “all cleavage detected by the H3-general antibody” value [3] was “abolished” and the “histone H3 cleavage (H3-general and H3.cs1 antibodies)” value ([3]; vs DMSO) was “decreased significantly”. The “processing of Cathepsin L from intermediate form into mature form” value ([3]; vs DMSO) was “significant failure to fully process Cathepsin L”, the Nestin expression [4, 7] was “trend toward maintaining higher expression” and the Pax3 expression [4, 7] was “trend toward maintaining higher expression”. For the same molecule, the Nanog expression ([4]; Q-PCR) was “remains unaffected”, the Nanog expression ([4]; Q-PCR, listed as Cathepsin L I inhibitor) was “does not differ significantly” and the Gata6 expression ([4]; Q-PCR, vs control) was “decreased expression”. The Sox17 expression ([4]; Q-PCR, vs control) was “decreased expression”, the HoxA1 expression ([4]; Q-PCR, vs control cells) was “did not show any significant trend” and the Musashi expression ([4]; Q-PCR, vs control cells) was “did not show any significant trend”. The “Oct-3/4 loss pattern (pluripotency marker)” value ([4]; immunoblot, RA differentiation) was “unchanged”.
`O=C(O)CN(CCN(CC(=O)O)CC(=O)O)CC(=O)O` [EDTA, Ethylenediaminetetraacetic acid] was tested, and the H3 cleavage activity [5] was “Significant inhibition”.
`O=C(O)CN(CCOCCOCCN(CC(=O)O)CC(=O)O)CC(=O)O` [EGTA] was tested, and the H3 cleavage activity [5] was “Significant inhibition”.
For “K18 acetyl: synthesized H3 15-31 peptide acetylated at K18 (APRKQLATKAARKSAPA; K18 acetylation; UniProt P68433 16-32, looked up, fragment)”, the “H3cs.1 cleavage activity of rCathepsin L on peptide” value (“H3cs.1 cleavage activity” for short) [6] was “increases”.
For “K18ac+K23ac: synthesized H3 15-31 peptide acetylated at K18 and K23 (APRK(Ac)QLATK(Ac)AARKSAPA; UniProt P68433 16-32, looked up, fragment)”, the “H3cs.1 cleavage activity” value [6] was “very little cleavage activity”.
“K23ac: synthesized H3 15-31 peptide acetylated at K23 (APRKQLATK(Ac)AARKSAPA; UniProt P68433 16-32, looked up, fragment)” was tested, and the “H3cs.1 cleavage activity” value [6] was “very little cleavage activity”.
With “K27me2: synthesized H3 15-31 peptide modified with K27me2 (APRKQLATKAARKSAPA; K27 dimethylation; UniProt P68433 16-32, looked up, fragment)” the “H3cs.1 cleavage activity” value [6] was “strongly increases”.
